Measured values from article PMC8582824, “Targeting DDX3X Helicase Activity with BA103 Shows Promising Therapeutic Effects in Preclinical Glioblastoma Models” (Cancers, 2021).

What was measured:
Format in all cases: cell-based
[1] = tested on: A549, MDA-MB-231, HCT-116, U2OS, RD18, DBTRG, U87, U251 and DAOY cancer cell lines; assay: Cytotoxicity on additional cancer cell lines; details: 72 h
Procedure: (§1) For CellTiter 96® Aqueous One Solution Cell Proliferation Assay (MTS) (Promega, Madison, WI, USA), cells were seeded at 5 × 10^3 per well in 96-well plates in quadruplicate together a control with no cells to evaluate the background. After 24 h, the culture medium was removed, and fresh medium containing increasing concentrations of chemical compounds was added to cells. The fixed final concentrations were 0.1 μM, 1 μM, 10 μM, and 100 μM. DMSO was the vehicle used for dilution of the compounds, and its final concentration on cells was less than 0.2%. Medium-only containing wells were included as controls. […] After 3 h at 37 °C in a humidified, 5% CO2 atmosphere, the absorbance at 492 nm was recorded using an EZREAD400 (Biochrom, Cambridge, United Kingdom) plate reader. The average 490 nm absorbance from the “no cell” control wells was subtracted from all other values to yield background-corrected absorbance. Dose–response curves and CC50 values have been calculated by plotting the absorbance data as a function of inhibitor concentrations and fitting the data by least-squares nonlinear regression, according to the method of Marquardt–Levenberg, with the computer program GraphPad Prism 6.0.
(§2) Cells were incubated with a scalar concentration of DDX3X inhibitors, and after 72 h of treatment, cell viability was assessed by cytotoxicity assay. […]

U87 and U251 cells [2] = assay: Transwell migration assay in GBM cells; details: 48 h of incubation, vs untreated cells
Procedure: Exponential growing cells were treated with the inhibitor or vehicle for 48 h and then trypsinized, washed twice with PBS, rinsed in complete medium, incubated at 37 °C for 30 min to reconstitute the membrane structures, washed again for FCS removal, and then added to the upper compartment of collagen-coated (PTFE) Transwell insert (Corning Inc., Corning, NY, USA). Cells were allowed to migrate through coated filters for 6 h. The cells attached on the lower membrane surfaces were stained with 0.1% crystal violet w/v in 0.1 mol/L borate, pH 9.0, and 2% ethanol v/v for 20 min at room temperature. Cells were counted at 400× magnification in standard optical microscopy, and the average number of cells per field in 5 random fields was recorded. Triplicate filters were used, and the experiments were repeated at least two times.
To better characterize the antiproliferative effect of BA103, we performed further biological evaluation using GBM cell lines. The expression of DDX3X was evaluated in U87 and U251 cell lines by Western blot analysis in comparison with HepG2 cells, resulting in basally detectable mainly in U87 cells (Figure 6A). […] Thus, also according to the importance of β-catenin signaling in GBM, we analyzed whether the expression of β-catenin in U87 and U251 cells could be associated with DDX3X activity. […]

U87 and U251 cells [3] = assay: Cell cycle analysis in GBM cells; details: after 72 h
Procedure: […] At the end point, at least 5 × 10^6 cells were harvested, washed with phosphate buffer saline (PBS), and fixed overnight with 70% ethanol. Then, ethanol was removed by centrifugation, and the cells were resuspended in PBS and stained with 50 μg/mL propidium iodide (PI) at 4 °C for 30 min in the dark. Stained cells were analyzed by a Tali image-based cytometer (Life Technologies, Carlsbad, CA, USA) counting 20 fields per sample, and exported fcs raw data were elaborated by Flowing software (v. 2.5.0, by Perttu Terho, University of Turku, Finland).
To better characterize the antiproliferative effect of BA103, we performed further biological evaluation using GBM cell lines. The expression of DDX3X was evaluated in U87 and U251 cell lines by Western blot analysis in comparison with HepG2 cells, resulting in basally detectable mainly in U87 cells (Figure 6A). […] Cell cycle experiments were performed in normal conditions (CTR) and in the presence of BA103 at 1 µM and 10 µM concentrations for 48 h and 72 h. […] Thus, also according to the importance of β-catenin signaling in GBM, we analyzed whether the expression of β-catenin in U87 and U251 cells could be associated with DDX3X activity. GBM cells were treated with BA103 for 48 h, and then, β-catenin expression was evaluated by Western blot analysis and immunofluorescence analysis (Figure 7A,B, respectively). […]

HepG2 = assay: MTS cytotoxicity assay, HepG2 cells; details: HepG2, 72 h
Procedure: as §1, §2

[4] = tested on: panel of cancer cell lines (Du-145, PC3, HepG2, Huh-7, HN6, U87 and U231); assay: Cytotoxicity screen on panel of cancer cell lines; details: 72 h of treatment
Procedure: as §1, §2

| SMILES | CC50s against the additional cell lines [1] | migration through collagen-coated Transwell filters (U87 and U251 cells [2]) | cell cycle distribution (U87 and U251 cells [3]) | CC50 (HepG2) | growth inhibition in all the cell lines tested [4] |
| --- | --- | --- | --- | --- | --- |
| CCCCc1cn(-c2ccc(NC(=O)Nc3ccccc3C(F)(F)F)cc2)nn1 [BA103, 1-(4-(4-Butyl-1H-1,2,3-triazol-1-yl)phenyl)-3-(2-(trifluoromethyl)phenyl)urea] | micromolar CC50s | reduced ability to migrate | significant accumulation of cells in the G0/G1 phase | low micromolar range | – |
| CCCCc1nnc(-c2ccc(NC(=O)Nc3ccccc3C(F)(F)F)cc2)[nH]1 [Compound 4, 1-(4-(5-Butyl-4H-1,2,4-triazol-3-yl)phenyl)-3-(2-(trifluoromethyl)phenyl)urea] | – | – | – | – | showed inhibition growth capability in all the cell lines tested |
